Data taken from ChEMBL document CHEMBL2086308, “Cytotoxic 2-phenyacrylnitriles, the importance of the cyanide moiety and discovery of potent broad spectrum cytotoxic agents” (2012).

Key:
Type in all cases: functional
A2780 [1] = experiment: Growth inhibition of human A2780 cells assessed as reduction in cell growth after 72 hrs by MTT assay; conditions: A2780, 72 h
MIA PaCa-2 [2] = experiment: Growth inhibition of human MIAPaCa2 cells assessed as reduction in cell growth after 72 hrs by MTT assay; conditions: MIA PaCa-2, 72 h
NCI-H460 [3] = experiment: Growth inhibition of human H460 cells assessed as reduction in cell growth after 72 hrs by MTT assay; conditions: NCI-H460, 72 h
[4] = Growth inhibition of human BE(2)-C cells assessed as reduction in cell growth after 72 hrs by MTT assay
MCF7 [5] = experiment: Growth inhibition of human MCF7 cells assessed as reduction in cell growth after 72 hrs by MTT assay; conditions: MCF7, 72 h
HT-29 [6] = experiment: Growth inhibition of human HT-29 cells assessed as reduction in cell growth after 72 hrs by MTT assay; conditions: HT-29, 72 h
SW480 [7] = experiment: Growth inhibition of human SW480 cells assessed as reduction in cell growth after 72 hrs by MTT assay; conditions: SW480, 72 h
A-431 [8] = experiment: Growth inhibition of human A431 cells assessed as reduction in cell growth after 72 hrs by MTT assay; conditions: A-431, 72 h
DU-145 [9] = experiment: Growth inhibition of human DU145 cells assessed as reduction in cell growth after 72 hrs by MTT assay; conditions: DU-145, 72 h
[10] = Growth inhibition of human SJ-G2 cells assessed as reduction in cell growth after 72 hrs by MTT assay; conditions: SJ-G2, 72 h
[11] = Growth inhibition of mouse SMA cells assessed as reduction in cell growth after 72 hrs by MTT assay
DU-145 [12] = experiment: Growth inhibition of human DU145 cells assessed as reduction in cell growth at 25uM after 72 hrs by MTT assay; conditions: DU-145, 72 h, read-out: GI
[13] = Growth inhibition of human SJ-G2 cells assessed as reduction in cell growth at 25uM after 72 hrs by MTT assay; conditions: SJ-G2, 72 h, read-out: GI
A2780 [14] = experiment: Growth inhibition of human A2780 cells assessed as reduction in cell growth at 25uM after 72 hrs by MTT assay; conditions: A2780, 72 h, read-out: GI
[15] = Growth inhibition of mouse SMA cells assessed as reduction in cell growth at 25uM after 72 hrs by MTT assay; conditions: read-out: GI
SW480 [16] = experiment: Growth inhibition of human SW480 cells assessed as reduction in cell growth at 25uM after 72 hrs by MTT assay; conditions: SW480, 72 h, read-out: GI
MIA PaCa-2 [17] = experiment: Growth inhibition of human MIAPaCa2 cells assessed as reduction in cell growth at 25uM after 72 hrs by MTT assay; conditions: MIA PaCa-2, 72 h, read-out: GI
[18] = Growth inhibition of human BE(2)-C cells assessed as reduction in cell growth at 25uM after 72 hrs by MTT assay; conditions: read-out: GI
NCI-H460 [19] = experiment: Growth inhibition of human H460 cells assessed as reduction in cell growth at 25uM after 72 hrs by MTT assay; conditions: NCI-H460, 72 h, read-out: GI
MCF7 [20] = experiment: Growth inhibition of human MCF7 cells assessed as reduction in cell growth at 25uM after 72 hrs by MTT assay; conditions: MCF7, 72 h, read-out: GI
A-431 [21] = experiment: Growth inhibition of human A431 cells assessed as reduction in cell growth at 25uM after 72 hrs by MTT assay; conditions: A-431, 72 h, read-out: GI
HT-29 [22] = experiment: Growth inhibition of human HT-29 cells assessed as reduction in cell growth at 25uM after 72 hrs by MTT assay; conditions: HT-29, 72 h, read-out: GI

Compound | GI50 (A2780 [1]) [µM] | GI50 (MIA PaCa-2 [2]) [µM] | GI50 (NCI-H460 [3]) [µM] | GI50 [4] [µM] | GI50 (MCF7 [5]) [µM] | GI50 (HT-29 [6]) [µM] | GI50 (SW480 [7]) [µM] | GI50 (A-431 [8]) [µM] | GI50 (DU-145 [9]) [µM] | GI50 [10] [µM] | GI50 [11] [µM] | inhibition of growth at 25 µM (DU-145 [12]) [%] | inhibition of growth at 25 µM [13] [%] | inhibition of growth at 25 µM (A2780 [14]) [%] | inhibition of growth at 25 µM [15] [%] | inhibition of growth at 25 µM (SW480 [16]) [%] | inhibition of growth at 25 µM (MIA PaCa-2 [17]) [%] | inhibition of growth at 25 µM [18] [%] | inhibition of growth at 25 µM (NCI-H460 [19]) [%] | inhibition of growth at 25 µM (MCF7 [20]) [%] | also measured
N#C/C(=C\c1ccc([N+](=O)[O-])cc1)c1ccc(Cl)c(Cl)c1 | 12 | 27 | 69 | 8.9 | 0.127 | 3.1 | 8.4 | 7.1 | 18 | 14 |  |  |  |  |  |  |  |  |  |  | 
N#C/C(=C\c1ccc(C(F)(F)F)cc1)c1ccc(Cl)c(Cl)c1 | 41 | 35 | 36 | 43 | 31 | 35 | 49 | 53 | 45 | 41 | 45 |  |  |  |  |  |  |  |  |  | 
N#C/C(=C\c1c[nH]c2ccccc12)c1ccc(Cl)c(Cl)c1 | 0.9 | 1.6 | 1 | 1 | 1.3 | 0.85 | 2.1 | 0.8 | 3.1 | 1.7 | 1.3 |  |  |  |  |  |  |  |  |  | 
N#C/C(=C\c1ccco1)c1ccc(Cl)c(Cl)c1 | 38 | 46 | 52 | 38 | 7 | 36 | 45 | 39 | 42 | 50 | 36 |  |  |  |  |  |  |  |  |  | 
N#C/C(=C\c1ccc(F)cc1)c1ccc(Cl)c(Cl)c1 | 9.5 | 11 | 10 | 13 | 6.5 | 9.3 | 5.6 | 10 | 18 | 16 |  |  |  |  |  |  |  |  |  |  | 
COc1ccc(/C=C(\C#N)c2ccc(Cl)c(Cl)c2)cc1 | 0.7 | 0.7 | 0.7 | 2.7 | 0.6 | 0.52 | 1.4 | 0.6 | 1.4 | 1.5 |  |  |  |  |  |  |  |  |  |  | 
O=C(O)/C(=C\c1ccc([N+](=O)[O-])cc1)c1ccc(Cl)c(Cl)c1 |  |  |  |  |  |  |  |  |  |  |  | < 10 | < 10 | < 10 | < 10 | < 10 | < 10 | < 10 | < 10 | 11 | inhibition of growth at 25 µM (A-431 [21]): < 10%; inhibition of growth at 25 µM (HT-29 [22]): 28%
COc1ccc(/C=C(\C(=O)O)c2ccc(Cl)c(Cl)c2)cc1 |  |  |  |  |  |  |  |  |  |  |  | < 10 | < 10 | < 10 | < 10 | < 10 | < 10 | < 10 | < 10 | < 10 | inhibition of growth at 25 µM (A-431 [21]): < 10%; inhibition of growth at 25 µM (HT-29 [22]): 11%
N#C/C(=C\c1ccc(-c2ccccc2)o1)c1ccc(Cl)c(Cl)c1 |  |  |  |  |  |  |  |  |  |  |  | < 10 | < 10 | 13 | < 10 | < 10 | < 10 | < 10 | 11 | < 10 | inhibition of growth at 25 µM (A-431 [21]): < 10%; inhibition of growth at 25 µM (HT-29 [22]): 15%
N#C/C(=C\c1ccc(CO)o1)c1ccc(Cl)c(Cl)c1 |  |  |  |  |  |  |  |  |  |  |  | < 10 | 27 | 25 | 16 | < 10 | < 10 | < 10 | 30 | 27 | inhibition of growth at 25 µM (A-431 [21]): < 10%; inhibition of growth at 25 µM (HT-29 [22]): 41%
N#C/C(=C\c1cc2ccccc2o1)c1ccc(Cl)c(Cl)c1 |  |  |  |  |  |  |  |  |  |  |  | 14 | 46 | 49 | 55 | 43 | 47 | 20 | 36 | 40 | inhibition of growth at 25 µM (A-431 [21]): 54%; inhibition of growth at 25 µM (HT-29 [22]): 43%
Cc1ccc(/C=C(\C#N)c2ccc(Cl)c(Cl)c2)o1 |  |  |  |  |  |  |  |  |  |  |  | < 10 | 32 | 43 | 33 | 47 | 36 | 50 | 40 | 68 | inhibition of growth at 25 µM (A-431 [21]): 46%; inhibition of growth at 25 µM (HT-29 [22]): 58%
Cc1[nH]c2ccccc2c1/C=C(\C#N)c1ccc(Cl)c(Cl)c1 | 2.2 | 2.4 | 2.2 | 2 | 2.8 | 1.9 | 3.8 | 2.1 | 5.6 | 4 | 2.9 |  |  |  |  |  |  |  |  |  | 
Cc1ccc2[nH]cc(/C=C(\C#N)c3ccc(Cl)c(Cl)c3)c2c1 | 3.2 | 3.7 | 3 | 3.4 | 3.7 | 2.8 | 4.7 | 3 | 7.4 | 5.3 | 4.1 |  |  |  |  |  |  |  |  |  | 
N#C/C(=C\c1c[nH]c2ccc(Cl)cc12)c1ccc(Cl)c(Cl)c1 | 7.4 | 11 | 8.7 | 8.6 | 2.3 | 7.1 | 8.8 | 7.7 | 12 | 9.7 | 6.7 |  |  |  |  |  |  |  |  |  | 
N#C/C(=C\c1c[nH]c2ccc(Br)cc12)c1ccc(Cl)c(Cl)c1 | 6.8 | 9 | 7.5 | 7 | 6.9 | 7 | 8.2 | 7.3 | 13 | 10 | 9.2 |  |  |  |  |  |  |  |  |  | 
N#C/C(=C\c1c[nH]c2ccc(C#N)cc12)c1ccc(Cl)c(Cl)c1 |  |  |  |  |  |  |  |  |  |  |  | 18 | 44 | 47 | 44 | 43 | 43 | 50 | 33 | 38 | inhibition of growth at 25 µM (A-431 [21]): 34%; inhibition of growth at 25 µM (HT-29 [22]): 57%
N#C/C(=C\c1c[nH]c2c1ccc1ccccc12)c1ccc(Cl)c(Cl)c1 | 3.7 | 6.1 | 5 | 3.8 | 4 | 4.2 | 7.5 | 3 | 8.7 | 6.8 | 5.9 |  |  |  |  |  |  |  |  |  | 
N#C/C(=C\c1ccc2[nH]ccc2c1)c1ccc(Cl)c(Cl)c1 | 0.41 | 0.5 | 0.39 | 0.33 | 0.23 | 0.36 | 0.67 | 0.37 | 1.04 | 0.83 | 0.74 |  |  |  |  |  |  |  |  |  | 
